From ChEMBL document CHEMBL4364247, “Development of potential preclinical candidates with promising in vitro ADME profile for the inhibition of type 1 and type 2 17β-Hydroxysteroid dehydrogenases: Design, synthesis, and biological evaluation” (Eur J Med Chem, 2019)
≈ marks a conversion by molar mass, not a printed value.

Key:
[1] = target: T1, 17-beta-hydroxysteroid dehydrogenase type 1 (Homo sapiens, UniProt P14061); test: Inhibition of human placental cytosolic fraction 17beta-HSD1 using [3H]-E1 as substrate in presence of […] by radio-HPLC analysis
T1 sequence (P14061 whole entry): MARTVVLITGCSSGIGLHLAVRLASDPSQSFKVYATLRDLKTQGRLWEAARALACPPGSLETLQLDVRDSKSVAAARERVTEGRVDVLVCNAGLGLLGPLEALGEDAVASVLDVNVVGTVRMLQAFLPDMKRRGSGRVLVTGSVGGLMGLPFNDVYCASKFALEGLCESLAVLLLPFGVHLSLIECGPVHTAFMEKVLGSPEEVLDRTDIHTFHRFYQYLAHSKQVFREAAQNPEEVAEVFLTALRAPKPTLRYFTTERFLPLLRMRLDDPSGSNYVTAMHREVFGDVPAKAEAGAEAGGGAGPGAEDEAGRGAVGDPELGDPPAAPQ

[2] = target: T2, 17-beta-hydroxysteroid dehydrogenase type 2 (Homo sapiens, UniProt P37059); test: Inhibition of human placental microsomal fraction 17beta-HSD2 using [3H]-E2 as substrate in presence of NAD+ by radio-HPLC analysis; assay type: subcellular, Placenta
T2 sequence (P37059 whole entry): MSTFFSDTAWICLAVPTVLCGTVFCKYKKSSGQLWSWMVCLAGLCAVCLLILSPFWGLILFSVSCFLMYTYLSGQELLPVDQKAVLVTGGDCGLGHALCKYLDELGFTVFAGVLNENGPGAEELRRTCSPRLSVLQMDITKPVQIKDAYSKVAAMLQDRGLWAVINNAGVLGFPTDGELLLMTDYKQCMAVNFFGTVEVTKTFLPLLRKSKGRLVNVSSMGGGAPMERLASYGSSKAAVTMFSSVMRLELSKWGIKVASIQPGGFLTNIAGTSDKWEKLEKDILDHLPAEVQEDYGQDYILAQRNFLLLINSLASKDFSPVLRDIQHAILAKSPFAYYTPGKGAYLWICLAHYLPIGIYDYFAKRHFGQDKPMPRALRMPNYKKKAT

[3] = target: T3, Estradiol 17-beta-dehydrogenase 2 (Mus musculus) (UniProt P51658); test: Inhibition of mouse liver homogenate 17beta-HSD2 at 1uM using [3H]-E2 as substrate in presence of NAD+ by radio-HPLC analysis relative to control; assay type: tissue-based
T3 sequence (whole entry): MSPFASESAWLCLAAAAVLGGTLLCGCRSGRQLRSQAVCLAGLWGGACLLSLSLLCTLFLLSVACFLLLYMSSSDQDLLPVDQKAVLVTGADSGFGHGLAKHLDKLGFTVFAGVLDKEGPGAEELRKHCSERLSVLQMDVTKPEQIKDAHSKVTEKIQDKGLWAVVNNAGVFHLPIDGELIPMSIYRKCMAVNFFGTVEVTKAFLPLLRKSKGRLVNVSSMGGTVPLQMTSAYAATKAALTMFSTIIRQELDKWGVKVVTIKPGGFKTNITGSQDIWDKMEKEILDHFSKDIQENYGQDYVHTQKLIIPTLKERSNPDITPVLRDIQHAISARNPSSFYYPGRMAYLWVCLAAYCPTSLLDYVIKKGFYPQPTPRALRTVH

[4] = Aqueous solubility of the compound in phosphate-buffered saline at pH 7.2 after 1 to 24 hrs; assay type: physicochemical
[5] = target: T4, 17-beta-hydroxysteroid dehydrogenase type 2 (Homo sapiens) (UniProt P37059); test: Inhibition of human placental microsomal fraction 17beta-HSD2 at 10 nM using [3H]-E2 as substrate in presence of NAD+ by radio-HPLC analysis relative to control; assay type: subcellular; conditions: Placenta
T4 sequence (whole entry): T2 sequence (P37059 whole entry)

[6] = target: T5, 17-beta-hydroxysteroid dehydrogenase type 1 (Homo sapiens) (UniProt P14061); conditions: 10 nM
T5 sequence (whole entry): T1 sequence (P14061 whole entry)
Description: Inhibition of human placental cytosolic fraction 17beta-HSD1 at 10 nM using [3H]-E1 as substrate in presence of NAD+ by radio-HPLC analysis relative to control

[7] = Half life in human liver S9 fraction at 1 uM in presence of NADPH; assay type: ADME, subcellular
[8] = target: T6, Estradiol 17-beta-dehydrogenase 2 (Mus musculus, UniProt P51658); test: Inhibition of mouse liver homogenate 17beta-HSD2 using [3H]-E2 as substrate in presence of NAD+ by radio-HPLC analysis; assay type: tissue-based
T6 sequence (P51658 whole entry): T3 sequence (whole entry)

[9] = target: T7, Steryl-sulfatase (Homo sapiens) (UniProt P08842); test: Inhibition of human steroid sulfatase expressed in T47D cells using [3H]-E1S as substrate by radio-HPLC analysis relative to control; assay type: cell-based; conditions: concentration not given here
T7 sequence (whole entry): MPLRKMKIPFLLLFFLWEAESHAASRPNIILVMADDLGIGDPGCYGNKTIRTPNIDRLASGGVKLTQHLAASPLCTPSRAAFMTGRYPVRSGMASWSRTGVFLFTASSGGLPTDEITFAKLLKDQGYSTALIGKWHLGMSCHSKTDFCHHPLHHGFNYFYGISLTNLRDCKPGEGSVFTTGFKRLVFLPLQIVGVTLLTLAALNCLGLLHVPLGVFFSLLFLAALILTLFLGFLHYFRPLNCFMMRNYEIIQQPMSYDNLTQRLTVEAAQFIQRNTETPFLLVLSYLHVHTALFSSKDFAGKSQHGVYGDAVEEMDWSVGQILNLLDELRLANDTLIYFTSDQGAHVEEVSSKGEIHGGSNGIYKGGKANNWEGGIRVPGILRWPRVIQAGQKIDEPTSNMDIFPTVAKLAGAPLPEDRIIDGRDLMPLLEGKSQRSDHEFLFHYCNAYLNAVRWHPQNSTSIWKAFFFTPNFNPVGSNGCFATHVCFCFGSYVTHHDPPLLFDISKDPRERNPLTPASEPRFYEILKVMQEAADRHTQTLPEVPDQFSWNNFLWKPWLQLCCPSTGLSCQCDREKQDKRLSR

[10] = Selectivity index, ratio of IC50 for mouse liver homogenate 17beta-HSD2 to IC50 for human placental cytosolic fraction 17beta-HSD1
HEK293 = test: Cytotoxicity against human HEK293 cells assessed as cell viability at 6.3 uM after 66 hrs by MTT assay; assay type: cell-based; conditions: hek293, 66 h
[11] = Selectivity index, ratio of cytotoxicity against HEK293 cells to IC50 for human placental cytosolic fraction 17beta-HSD1

Row | Compound | IC50 [1] | IC50 [2] | solubility [4] | half-life at 1 µM [7] | other results
1 | CS(=O)(=O)n1cc(-c2ccc(C(=O)c3c(F)ccc(O)c3F)s2)cn1 | 80 nM | 75 nM | – | – | –
2 | O=C(c1ccc(-c2cncc(F)c2)s1)c1cc(F)c(F)c(O)c1F | – | – | > 200 µM | – | inhibition [3]: 24%
3 | NS(=O)(=O)c1cccc(-c2ccc(C(=O)c3c(F)ccc(O)c3F)s2)c1 | – | – | – | – | inhibition [5]: 26%; inhibition [6]: 34%
4 | Cc1cc(-c2ccc(C(=O)c3c(F)ccc(O)c3F)s2)cc(C)c1O | – | 7.3 nM | 15 to 25 µM (≈ 5.41 to 9.01 µg/mL) | < 5 min | –
5 | COc1c(Cl)cc(-c2ccc(C(=O)c3c(F)ccc(O)c3F)s2)cc1Cl | – | – | < 5 µM | < 5 min | –
6 | O=C(c1ccc(-c2cccc(NS(=O)(=O)c3ccccc3OC(F)(F)F)c2)s1)c1cc(F)c(F)c(O)c1F | – | – | 25 to 50 µM (≈ 14.3 to 28.7 µg/mL) | – | –
7 | Cc1cc(-c2ccc(C(=O)c3cc(F)c(F)c(O)c3C)s2)cc(C)c1O | – | – | 15 to 25 µM (≈ 5.62 to 9.36 µg/mL) | 28 min | –
8 | Cc1cc(-c2ccc(C(=O)c3cc(F)cc(O)c3C)s2)cc(C)c1O | 6 nM | 76 nM | 100 to 200 µM (≈ 35.6 to 71.3 µg/mL) | 22 min | Activity (HEK293): Non-Toxic; Selectivity Index [11]: 1050
9 | NS(=O)(=O)c1ccc(-c2ccc(C(=O)c3c(F)ccc(O)c3F)s2)cc1 | – | – | – | – | inhibition [5]: 54%; inhibition [6]: 18%

More lines, main results first:

Row | IC50 [1] | IC50 [2] | solubility [4] | half-life at 1 µM [7] | Compound | other results
10 | 15 nM | 9.5 nM | – | – | COc1c(Cl)cc(-c2ccc(C(=O)c3c(F)ccc(O)c3Cl)s2)cc1Cl | –
11 | – | – | – | 25 min | Cc1cc(-c2ccc(C(=O)c3cccc(O)c3C)s2)cc(C)c1O | –
12 | 35 nM | 6 nM | > 200 µM | 55 min | NS(=O)(=O)Oc1ccc(-c2ccc(C(=O)c3cc(F)c(F)c(O)c3F)s2)cc1 | IC50 [8]: 80 nM; inhibition [9]: 60%; Ratio IC50 [10]: < 10
13 | 3 nM | 18 nM | – | – | O=C(c1ccc(-c2cc(Cl)c(O)c(Cl)c2)s1)c1c(Cl)ccc(O)c1F | –
14 | 8 nM | 18 nM | > 200 µM | – | CS(=O)(=O)c1cccc(-c2ccc(C(=O)c3cc(F)c(F)c(O)c3F)s2)c1 | inhibition [3]: 60%
15 | 0.5 nM | 15 nM | – | < 5 min | COc1c(Cl)cc(-c2ccc(C(=O)c3c(Cl)ccc(O)c3F)s2)cc1Cl | –
